{"source": "patent US20170190671A1", "about": "“BIS(ARYL)CATECHOL DERIVATIVES AS HERBICIDES” (E I DU PONT DE NEMOURS AND COMPANY, priority 2014, published 2017)", "assay_type_in_all_cases": "in vivo", "key": {"[1]": {"system": "barnyardgrass (Echinochloa crus-galli)", "test": "Test B flooded paddy", "conditions": "Echinochloa crus-galli, 336 h; 250 g ai/ha, Flood, 13 to 15 days, scale 0 (no effect) to 100 (complete control); read-out: Plant response rating, Barnyardgrass", "procedure,_shortened": "(§1)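 Compound was added to standing water 3 cm above soil, flood maintained, and plants held in a greenhouse before visual scoring against controls at 13 to 15 days.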"}, "[2]": {"system": "ducksalad (Heteranthera limosa)", "test": "Test B flooded paddy", "conditions": "Heteranthera limosa, 336 h; 250 g ai/ha, Flood, 13 to 15 days, scale 0 (no effect) to 100 (complete control); read-out: Plant response rating, Ducksalad", "procedure,_shortened": "as §1"}, "rice (Oryza sativa)": {"system": "rice (Oryza sativa)", "test": "Test B flooded paddy", "conditions": "Oryza sativa, 336 h; 250 g ai/ha, Flood, 13 to 15 days, scale 0 (no effect) to 100 (complete control); read-out: Plant response rating, Rice", "procedure,_shortened": "as §1"}, "[3]": {"system": "sedge, umbrella (small-flower umbrella sedge, Cyperus difformis)", "test": "Test B flooded paddy", "conditions": "Cyperus difformis, 336 h; 250 g ai/ha, Flood, 13 to 15 days, scale 0 (no effect) to 100 (complete control); read-out: Plant response rating, Sedge, Umbrella", "procedure,_shortened": "as §1"}, "[4]": {"system": "Italian ryegrass (Lolium multiflorum)", "test": "Test A preemergence", "conditions": "Lolium multiflorum, pre-emergence, 240 h", "procedure,_shortened": "(§2)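 Scoring: eye-based comparison with untreated controls, 0 for no effect through 100 for complete control, at about day 10. Treatments: directed soil spray preemergence; foliar spray postemergence on 2–10 cm plants at the one- to two-leaf stage. Medium: loam soil with sand.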"}, "[5]": {"system": "barnyardgrass (Echinochloa crus-galli)", "test": "Test A preemergence", "conditions": "Echinochloa crus-galli, pre-emergence, 240 h", "procedure,_shortened": "as §2"}, "[6]": {"system": "giant foxtail (Setaria faberii)", "test": "Test A preemergence", "conditions": "Setaria faberi, pre-emergence, 240 h", "procedure,_shortened": "as §2"}, "kochia (Kochia scoparia) [7]": {"system": "kochia (Kochia scoparia)", "test": "Test A preemergence", "conditions": "Bassia scoparia, pre-emergence, 240 h", "procedure,_shortened": "as §2"}, "[8]": {"system": "pigweed (Amaranthus retroflexus)", "test": "Test A preemergence", "conditions": "Amaranthus retroflexus, pre-emergence, 240 h", "procedure,_shortened": "as §2"}, "[9]": {"system": "ragweed (common ragweed, Ambrosia elatior)", "test": "Test A preemergence", "conditions": "Ambrosia artemisiifolia, pre-emergence, 240 h", "procedure,_shortened": "as §2"}, "[10]": {"system": "Italian ryegrass (Lolium multiflorum)", "test": "Test A postemergence", "conditions": "Lolium multiflorum, post-emergence, 240 h, 0 to 100 scale, read-out: Plant response rating, Ryegrass, Italian", "procedure,_shortened": "as §2"}, "[11]": {"system": "barnyardgrass (Echinochloa crus-galli)", "test": "Test A postemergence", "conditions": "Echinochloa crus-galli, post-emergence, 240 h, 0 to 100 scale, read-out: Plant response rating, Barnyardgrass", "procedure,_shortened": "as §2"}, "[12]": {"system": "blackgrass (Alopecurus myosuroides)", "test": "Test A postemergence", "conditions": "Alopecurus myosuroides, post-emergence, 240 h, 0 to 100 scale, read-out: Plant response rating, Blackgrass", "procedure,_shortened": "as §2"}, "corn (Zea mays)": {"system": "corn (Zea mays)", "test": "Test A postemergence", "conditions": "Zea mays, post-emergence, 240 h, 0 to 100 scale", "procedure,_shortened": "as §2"}, "[13]": {"system": "galium (catchweed bedstraw, Galium aparine)", "test": "Test A postemergence", "conditions": "Galium, post-emergence, 240 h, 0 to 100 scale, read-out: Plant response rating, Galium", "procedure,_shortened": "as §2"}, "[14]": {"system": "giant foxtail (Setaria faberii)", "test": "Test A postemergence", "conditions": "Setaria faberi, post-emergence, 240 h, 0 to 100 scale, read-out: Plant response rating, Foxtail, Giant", "procedure,_shortened": "as §2"}, "kochia (Kochia scoparia) [15]": {"system": "kochia (Kochia scoparia)", "test": "Test A postemergence", "conditions": "Bassia scoparia, post-emergence, 240 h, 0 to 100 scale, read-out: Plant response rating, Kochia", "procedure,_shortened": "as §2"}, "[16]": {"system": "pigweed (Amaranthus retroflexus)", "test": "Test A postemergence", "conditions": "Amaranthus retroflexus, post-emergence, 240 h, 0 to 100 scale, read-out: Plant response rating, Pigweed", "procedure,_shortened": "as §2"}, "[17]": {"system": "ragweed (common ragweed, Ambrosia elatior)", "test": "Test A postemergence", "conditions": "Ambrosia artemisiifolia, post-emergence, 240 h, 0 to 100 scale, read-out: Plant response rating, Ragweed", "procedure,_shortened": "as §2"}, "[18]": {"system": "wheat (Triticum aestivum)", "test": "Test A postemergence", "conditions": "Triticum aestivum, post-emergence, 240 h, 0 to 100 scale, read-out: Plant response rating, Wheat", "procedure,_shortened": "as §2"}, "[19]": {"system": "galium (catchweed bedstraw, Galium aparine)", "test": "Test C preemergence", "conditions": "Galium, pre-emergence, 336 h, scale 0 to 100, read-out: Plant response rating, Galium", "procedure,_shortened": "(§3)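 After preemergence treatment of seeds in loam-sand soil or foliar treatment at the 1- to 4-leaf stage of plants in peat/vermiculite medium, pots were kept 13-15 days in the greenhouse. Each was then scored visually, 0 meaning no effect and 100 complete control.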"}, "[20]": {"system": "ragweed (common ragweed, Ambrosia elatior)", "test": "Test C preemergence", "conditions": "Ambrosia artemisiifolia, pre-emergence, 336 h, scale 0 to 100, read-out: Plant response rating, Ragweed", "procedure,_shortened": "as §3"}}}
{"smiles": "Fc1cccc(Oc2ncc(C(F)(F)F)cn2)c1Oc1ncc(Cl)cn1", "note": "[Compound 42, 5-chloro-2-[2-fluoro-6-[[5-(trifluoromethyl)-2-pyrimidinyl]oxy]phenoxy]pyrimidine]", "values": [{"measurement": "pest or weed control at 250 g/ha", "setting": "[1]", "result": 100, "unit": "%"}, {"measurement": "pest or weed control at 250 g/ha", "setting": "[2]", "result": 100, "unit": "%"}, {"measurement": "plant injury at 250 g/ha", "setting": "rice (Oryza sativa)", "result": 80, "unit": "%"}, {"measurement": "pest or weed control at 250 g/ha", "setting": "[3]", "result": 100, "unit": "%"}, {"measurement": "pest or weed control at 125 g/ha", "setting": "[4]; 125 g ai/ha, 0 to 100 scale (0 no effect, 100 complete control), read-out: Ryegrass, Italian plant response rating", "result": 60, "unit": "%"}, {"measurement": "pest or weed control at 500 g/ha", "setting": "[4]; 500 g ai/ha, 0 to 100 scale, read-out: Plant response rating, Ryegrass, Italian", "result": 100, "unit": "%"}, {"measurement": "pest or weed control at 125 g/ha", "setting": "[5]; 125 g ai/ha, 0 to 100 scale (0 no effect, 100 complete control), read-out: Barnyardgrass plant response rating", "result": 100, "unit": "%"}, {"measurement": "pest or weed control at 500 g/ha", "setting": "[5]; 500 g ai/ha, 0 to 100 scale, read-out: Plant response rating, Barnyardgrass", "result": 100, "unit": "%"}, {"measurement": "pest or weed control at 125 g/ha", "setting": "[6]; 125 g ai/ha, 0 to 100 scale (0 no effect, 100 complete control), read-out: Foxtail, Giant plant response rating", "result": 100, "unit": "%"}, {"measurement": "pest or weed control at 500 g/ha", "setting": "[6]; 500 g ai/ha, 0 to 100 scale, read-out: Plant response rating, Foxtail, Giant", "result": 100, "unit": "%"}, {"measurement": "pest or weed control at 125 g/ha", "setting": "kochia (Kochia scoparia) [7]; 125 g ai/ha, 0 to 100 scale (0 no effect, 100 complete control), read-out: Kochia plant response rating", "result": 100, "unit": "%"}, {"measurement": "pest or weed control at 500 g/ha", "setting": "kochia (Kochia scoparia) [7]; 500 g ai/ha, 0 to 100 scale, read-out: Plant response rating, Kochia", "result": 100, "unit": "%"}, {"measurement": "pest or weed control at 125 g/ha", "setting": "[8]; 125 g ai/ha, 0 to 100 scale (0 no effect, 100 complete control), read-out: Pigweed plant response rating", "result": 100, "unit": "%"}, {"measurement": "pest or weed control at 500 g/ha", "setting": "[8]; 500 g ai/ha, 0 to 100 scale, read-out: Plant response rating, Pigweed", "result": 100, "unit": "%"}, {"measurement": "pest or weed control at 125 g/ha", "setting": "[9]; 125 g ai/ha, 0 to 100 scale (0 no effect, 100 complete control), read-out: Ragweed plant response rating", "result": 100, "unit": "%"}, {"measurement": "pest or weed control at 500 g/ha", "setting": "[9]; 500 g ai/ha, 0 to 100 scale, read-out: Plant response rating, Ragweed", "result": 100, "unit": "%"}, {"measurement": "pest or weed control at 125 g/ha", "setting": "[10]; 125 g ai/ha", "result": 100, "unit": "%"}, {"measurement": "pest or weed control at 500 g/ha", "setting": "[10]; 500 g ai/ha", "result": 100, "unit": "%"}, {"measurement": "pest or weed control at 125 g/ha", "setting": "[11]; 125 g ai/ha", "result": 100, "unit": "%"}, {"measurement": "pest or weed control at 500 g/ha", "setting": "[11]; 500 g ai/ha", "result": 100, "unit": "%"}, {"measurement": "pest or weed control at 125 g/ha", "setting": "[12]; 125 g ai/ha", "result": 90, "unit": "%"}, {"measurement": "pest or weed control at 500 g/ha", "setting": "[12]; 500 g ai/ha", "result": 100, "unit": "%"}, {"measurement": "Corn plant response rating (crop injury, 0 = no effect, 100 = complete kill) at 125 g/ha", "setting": "corn (Zea mays); 125 g ai/ha", "result": 80, "unit": "%"}, {"measurement": "Corn plant response rating (crop injury, 0 = no effect, 100 = complete kill) at 500 g/ha", "setting": "corn (Zea mays); 500 g ai/ha", "result": 100, "unit": "%"}, {"measurement": "pest or weed control at 125 g/ha", "setting": "[13]; 125 g ai/ha", "result": 100, "unit": "%"}, {"measurement": "pest or weed control at 500 g/ha", "setting": "[13]; 500 g ai/ha", "result": 100, "unit": "%"}, {"measurement": "pest or weed control at 125 g/ha", "setting": "[14]; 125 g ai/ha", "result": 100, "unit": "%"}, {"measurement": "pest or weed control at 500 g/ha", "setting": "[14]; 500 g ai/ha", "result": 100, "unit": "%"}, {"measurement": "pest or weed control at 125 g/ha", "setting": "kochia (Kochia scoparia) [15]; 125 g ai/ha", "result": 100, "unit": "%"}, {"measurement": "pest or weed control at 500 g/ha", "setting": "kochia (Kochia scoparia) [15]; 500 g ai/ha", "result": 100, "unit": "%"}, {"measurement": "pest or weed control at 125 g/ha", "setting": "[16]; 125 g ai/ha", "result": 100, "unit": "%"}, {"measurement": "pest or weed control at 500 g/ha", "setting": "[16]; 500 g ai/ha", "result": 100, "unit": "%"}, {"measurement": "pest or weed control at 125 g/ha", "setting": "[17]; 125 g ai/ha", "result": 70, "unit": "%"}, {"measurement": "pest or weed control at 500 g/ha", "setting": "[17]; 500 g ai/ha", "result": 100, "unit": "%"}, {"measurement": "plant injury at 125 g/ha", "setting": "[18]; 125 g ai/ha", "result": 80, "unit": "%"}, {"measurement": "plant injury at 500 g/ha", "setting": "[18]; 500 g ai/ha", "result": 100, "unit": "%"}, {"measurement": "pest or weed control at 31 g/ha", "setting": "[19]; 31 g ai/ha, preemergence", "result": 95, "unit": "%"}, {"measurement": "pest or weed control at 62 g/ha", "setting": "[19]; 62 g ai/ha, preemergence", "result": 95, "unit": "%"}, {"measurement": "pest or weed control at 125 g/ha", "setting": "[19]; 125 g ai/ha, preemergence", "result": 98, "unit": "%"}, {"measurement": "pest or weed control at 16 g/ha", "setting": "[19]; Preemergence, 16 g ai/ha", "result": 95, "unit": "%"}, {"measurement": "pest or weed control at 31 g/ha", "setting": "[20]; 31 g ai/ha, preemergence", "result": 55, "unit": "%"}, {"measurement": "pest or weed control at 62 g/ha", "setting": "[20]; 62 g ai/ha, preemergence", "result": 98, "unit": "%"}, {"measurement": "pest or weed control at 125 g/ha", "setting": "[20]; 125 g ai/ha, preemergence", "result": 90, "unit": "%"}, {"measurement": "pest or weed control at 16 g/ha", "setting": "[20]; Preemergence, 16 g ai/ha", "result": 30, "unit": "%"}]}
